Experimental data: PubChem BioAssay (NCI)
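Each compound was tested at five concentrations against cells in 96-well plates for 48 hours. The concentration for 50% growth inhibition is given as GI50. At the TGI there is no net growth.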 Activity calls are given as the source filed them. No stated cut-off is given here; in the data, active means GI50 below about 0.43 µM; inactive means the rest.

Experiments:
Assay in all cases: NCI tumour cell line growth inhibition, 48 h
[1] = test system: A498 renal
[2] = test system: A549 NSCLC
[3] = test system: ACHN renal
[4] = test system: BT-549 breast
[5] = test system: CAKI-1 renal
[6] = test system: CCRF-CEM leukemia
[7] = test system: COLO 205 colon
[8] = test system: DLD-1 colon
[9] = test system: DMS 273 small cell lung
[10] = test system: EKVX NSCLC
[11] = test system: HCC-2998 colon
[12] = test system: HCT-15 colon
[13] = test system: HL-60(TB) leukemia
[14] = test system: HOP-62 NSCLC
[15] = test system: HOP-92 NSCLC
[16] = test system: HS 578T breast
[17] = test system: HT29 colon
[18] = test system: K-562 leukemia
[19] = test system: KM12 colon
[20] = test system: LOX IMVI melanoma
[21] = test system: LXFL 529 NSCLC
[22] = test system: M14 melanoma
[23] = test system: M19-MEL melanoma
[24] = test system: MCF7 breast
[25] = test system: MDA-MB-231 breast
[26] = test system: MDA-MB-435
[27] = test system: MDA-N
[28] = test system: MOLT-4 leukemia
[29] = test system: NCI-H460 lung
[30] = test system: NCI-H522 lung
[31] = test system: NCI/ADR-RES ovarian
[32] = test system: OVCAR-4 ovarian
[33] = test system: OVCAR-5 ovarian
[34] = test system: OVCAR-8 ovarian
[35] = test system: PC-3 prostate
[36] = test system: RPMI-8226 leukemia
[37] = test system: SF-295 CNS
[38] = test system: SF-539 CNS
[39] = test system: SK-MEL-2 melanoma
[40] = test system: SK-MEL-28 melanoma
[41] = test system: SK-MEL-5 melanoma
[42] = test system: SK-OV-3 ovarian
[43] = test system: SN12C renal
[44] = test system: SNB-78 CNS
[45] = test system: SR leukemia
[46] = test system: T-47D breast
[47] = test system: TK-10 renal
[48] = test system: U251 CNS
[49] = test system: UACC-257 melanoma
[50] = test system: UO-31 renal

C[CH2][Sn]([CH2]C)([O]C(=O)c1ccccc1F)[O]C(=O)c1ccccc1F
GI50 [1]: 18.5 µM
TGI [1]: 35.5 µM
GI50 [2]: > 100 µM
TGI [2]: > 100 µM
GI50 [3]: 32.7 µM
TGI [3]: 48.3 µM
GI50 [4]: 18.1 µM
TGI [4]: 35.8 µM
GI50 [5]: 11.9 µM
TGI [5]: 19.6 µM
GI50 [6]: 8.77 µM
TGI [6]: 35.6 µM
GI50 [7]: 38.8 µM
TGI [7]: 62.3 µM
GI50 [8]: 29.8 µM
TGI [8]: > 91.3 µM
GI50 [9]: > 67 µM
TGI [9]: > 100 µM
GI50 [10]: > 100 µM
TGI [10]: > 100 µM
GI50 [11]: > 100 µM
TGI [11]: > 100 µM
GI50 [12]: 29 µM
TGI [12]: > 67.7 µM
GI50 [13]: > 45.2 µM
TGI [13]: > 100 µM
GI50 [14]: > 100 µM
TGI [14]: > 100 µM
GI50 [15]: 18 µM
TGI [15]: 37.7 µM
GI50 [16]: 42.2 µM
TGI [16]: > 100 µM
GI50 [17]: 59.2 µM
TGI [17]: > 100 µM
GI50 [18]: 16.2 µM
TGI [18]: 55.1 µM
GI50 [19]: > 100 µM
TGI [19]: > 100 µM
GI50 [20]: 19.2 µM
TGI [20]: 40.8 µM
GI50 [21]: 11.1 µM
TGI [21]: 24.2 µM
GI50 [22]: 30.4 µM
TGI [22]: 56.8 µM
GI50 [23]: 29.8 µM
TGI [23]: > 77.2 µM
GI50 [24]: 27.4 µM
TGI [24]: 80.6 µM
GI50 [25]: > 100 µM
TGI [25]: > 100 µM
GI50 [26]: > 100 µM
TGI [26]: > 100 µM
GI50 [27]: > 100 µM
TGI [27]: > 100 µM
GI50 [28]: 28.8 µM
TGI [28]: > 91 µM
GI50 [29]: > 100 µM
TGI [29]: > 100 µM
GI50 [30]: 2.1 µM
TGI [30]: 6.84 µM
GI50 [31]: > 100 µM
TGI [31]: > 100 µM
GI50 [32]: > 100 µM
TGI [32]: > 100 µM
GI50 [33]: > 97.4 µM
TGI [33]: > 100 µM
GI50 [34]: > 70.5 µM
TGI [34]: > 100 µM
GI50 [35]: > 100 µM
TGI [35]: > 100 µM
GI50 [36]: 17.2 µM
TGI [36]: 45.7 µM
GI50 [37]: > 62 µM
TGI [37]: > 84.6 µM
GI50 [38]: 23.2 µM
TGI [38]: 29.4 µM
GI50 [39]: 15.8 µM
TGI [39]: 28.1 µM
GI50 [40]: 29.1 µM
TGI [40]: 47.6 µM
GI50 [41]: 50.2 µM
TGI [41]: > 100 µM
GI50 [42]: > 100 µM
TGI [42]: > 100 µM
GI50 [43]: > 75 µM
TGI [43]: > 100 µM
GI50 [44]: 20.6 µM
TGI [44]: 39 µM
GI50 [45]: 22.6 µM
TGI [45]: > 100 µM
GI50 [46]: 11.8 µM
TGI [46]: 24.4 µM
GI50 [47]: 18.1 µM
TGI [47]: 33.4 µM
GI50 [48]: 47.4 µM
TGI [48]: > 85.1 µM
GI50 [49]: 32 µM
TGI [49]: > 46.4 µM
GI50 [50]: > 55.2 µM
TGI [50]: > 67.3 µM

C=CC(=O)C#CC#CC/C=C\CCCCCCC
TGI [1]: > 20.6 µM
outcome [1]: inactive
TGI [2]: > 20.6 µM
outcome [2]: inactive
TGI [3]: > 20.6 µM
outcome [3]: inactive
TGI [4]: > 20.6 µM
TGI [5]: > 20.6 µM
outcome [5]: inactive
TGI [6]: > 17.3 µM
outcome [6]: inactive
TGI [7]: > 20.6 µM
outcome [7]: inactive
TGI [8]: > 20.6 µM
TGI [9]: > 20.6 µM
TGI [10]: > 20.6 µM
outcome [10]: inactive
TGI [11]: > 20.6 µM
outcome [11]: inactive
TGI [12]: > 20.6 µM
outcome [12]: inactive
TGI [13]: > 20.6 µM
outcome [13]: inactive
TGI [14]: > 20.6 µM
outcome [14]: inactive
TGI [15]: > 20.6 µM
TGI [16]: > 20.6 µM
outcome [16]: inactive
TGI [17]: > 20.6 µM
outcome [17]: inactive
TGI [18]: > 20.6 µM
outcome [18]: inactive
TGI [19]: > 20.6 µM
outcome [19]: inactive
TGI [20]: > 20.6 µM
outcome [20]: inactive
TGI [21]: > 20.6 µM
TGI [22]: > 20.6 µM
outcome [22]: inactive
TGI [23]: > 20.6 µM
TGI [24]: > 20.6 µM
outcome [24]: inactive
TGI [25]: > 20.6 µM
outcome [25]: inactive
TGI [26]: > 20.6 µM
outcome [26]: inactive
outcome [27]: inactive
TGI [28]: 12.3 µM
outcome [28]: inactive
TGI [29]: > 20.6 µM
outcome [29]: inactive
TGI [30]: > 20.6 µM
outcome [30]: inactive
TGI [31]: > 20.6 µM
outcome [31]: inactive
TGI [32]: > 20.6 µM
outcome [32]: inactive
TGI [33]: > 20.6 µM
outcome [33]: inactive
TGI [34]: > 20.6 µM
outcome [34]: inactive
outcome [35]: inactive
TGI [36]: > 18.6 µM
outcome [36]: inactive
TGI [37]: > 20.6 µM
outcome [37]: inactive
TGI [38]: > 20.6 µM
outcome [38]: inactive
TGI [39]: > 20.6 µM
outcome [39]: inactive
TGI [40]: > 20.6 µM
outcome [40]: inactive
TGI [41]: > 20.6 µM
outcome [41]: inactive
TGI [42]: > 20.6 µM
outcome [42]: inactive
TGI [43]: > 20.6 µM
outcome [43]: inactive
TGI [44]: > 20.6 µM
TGI [45]: 14.2 µM
outcome [45]: inactive
TGI [46]: > 20.6 µM
outcome [46]: inactive
TGI [47]: > 20.6 µM
outcome [47]: inactive
TGI [48]: > 20.6 µM
outcome [48]: inactive
TGI [49]: > 20.6 µM
outcome [49]: inactive
TGI [50]: > 20.6 µM
outcome [50]: inactive
